Measurements as given in patent US20080089851A1, “Brown Algae Cell Lyophilisate, Method For The Obtention Thereof” (BIOTECHMARINE, priority 2005, published 2008).
Values joined by “and” are separate entries in the source; they are usually repeats but may differ in a detail not shown here. Identical values can stand only once.

How the values were obtained:
[1] = system: reconstructed melanized human epidermal skins; experiment: Pigmentation test: melanic content by image analysis (Fontana Masson); format: cell-based; details: WITHOUT UV; α-MSH 100 nM
Experimental: 3. —Histological Assessment
The epidermis skins ware fixed in formaldehyde from the end of incubation, then embedded in paraffin blocs. Subsequently sections of 4 μm thickness were cut.
Said slides by condition were carried out with a magnification ×400. The visualisable melanin on these slides was quantified by image analysis using the Image J program.
The results are expressed in form of the surface occupied by the melanin (number of pixels the grey scale of which is between 0 and 100; 0=black/255=white) in each slide (average +/−standard deviation, SD).
The statistical significance of the noted differences between the treated conditions and controls was assessed by a Student's test (*: p<0.05, **: p<0.01; ***: p<0.001).

[2] = system: reconstructed melanized human epidermis; experiment: Pigmentation test: biochemical quantification of the melanic content; format: cell-based; details: α-MSH 100 nM
Experimental: 1. —Materials and Methods
The BB product is diluted in ethanol then incorporated into a cosmetic formulation.
a—BB product incorporated in formulation at 0.05%
b—BB product incorporated in formulation at 0.15%
c—BB product incorporated in formulation at 0.30%
They are conserved at 4° C. until use thereof.
2. —Biochemical Assessment
At the end of the incubation, the melanin contained in cell lysates was quantified by a spectrophotometrical method. A range of melanin was carried out in parallel with the assay.
The results are expressed in […] of melanin per ml of lysate of the cell carpets (average +/−standard deviation SD).
The statistical significance of the observed differences between the conditions <<treated >> and <<controls >> was assessed by variance analysis to a factor (One Way ANOVA) followed by a test of Bonferroni t-test (*:p<0.05;**:p<0.01).

[3] = system: microsomes of human keratinocytes; experiment: Transport of lipids (choline), direct treatment of isolated microsomes; format: biochemical; details: for Capture of [^3H]choline: DPA 1 mM
From the text: 7.1—Assessment of the Rate of Transport of Macromolecules (Glucids, Lipids and Proteins) in a System of Isolated Microsomes. Direct Effect of the BB Product on Isolated Microsomes:
The microsomes of human keratinocytes form a membrane fraction obtained by high-speed differential centrifugation of a cell homogenate. This preparation of microsomes requires the addition of exogenous cofactors such as NADPH.
7.1.2—Transport of Lipids
(§1) The obtained microsomes from human keratinocytes in culture were rinsed 3 times with 25 mM Tris buffer, then preincubated in 1 ml of the same buffer for 30 minutes at 37° C. This solution was then discarded and the microsomes were placed into the 25 mM Tris buffer containing [^3H] Choline with stirring in a water bath at 37° C. The capture of choline was stopped by addition of a lysis buffer containing (50 mM de Tris, 140 mM NaCl, 1.5 mM MgSO4, 0.5% Igepal-Ca-630, 0.2% SDS). The kinetics of incubation was performed between 30 and 120 seconds. Subsequently, the microsomes were rinsed 2 times with PBS then dissolved in NaOH (1M) at 4° C. over night. The radioactivity was determined with a scintillation counter.
The protein assay was carried out following the BRADFORD method. The increase in absorbance at 595 nm, determined with a spectrophotometer, is proportional to the protein concentration.

[4] = system: human keratinocytes in senescence; experiment: Transport of lipids (choline), human keratinocytes in senescence; format: cell-based; details: for Capture of [^3H]choline: DPA 1 mM
Experimental: as §1
7.3—Assessment of the Rate of Transport of Macromolecules at the Level of Human Keratinocytes in Senescence
The senescence is a phenomenon of cellular aging, where the cells are arrested in the phase G1 of the cell cycle and never enter the synthesis phase leading to the cell division. Senescent cells are characterized by their slow metabolism at synthesis and transport of macromolecules levels.
The cells in culture deprived of serum stop their growth, but continue to progress through the cell cycle until they reach the phase G1.
The assays were performed on keratinocytes, between the 8th and the 10th passage, in order to ensure the presence of senescent cells at control cells level.
The keratinocytes were seeded in multiwell plates (6 wells) at a rate of 10^5 cells per well in 3 ml of culture medium […] supplemented with EGF, hydrocortisone, insulin and gentamicyn. Afterwards they are maintained for 5 days in incubator under CO2.
7.3.2—Transport of Lipids
(§2) The membrane microsomes were separated by differential centrifugation.
The same protocol of capture of [3H] Choline was applied to the determination of the rate of transport of choline (cf. 6.1.2)

[5] = system: normal human keratinocytes; experiment: Transport of lipids (choline), normal human keratinocytes; format: cell-based; details: for Capture of [^3H]choline: DPA 1 mM
Experimental: as §1
7.2—Assessment of the Rate of Transport of Macromolecules at the Level of Normal Human Keratinocytes
The applied method was that of explants allowing to obtain, from a biopsy of human skin, keratinocytes in primary cultures. The assays were carried out on keratinocytes between the 2nd and the 4th passage in order to ensure a reproductibility between the different experiences.
The keratinocytes were divided into multiwell plates (6 wells) at a rate of 10^5 cells per well in 1 ml of culture medium […] supplemented with insulin and hydrocortisone. The cells were incubated in the presence and absence of the investigated product.
7.2.2—Transport of Lipids
as §2
The same protocol of capture of [3H] choline was used for the determination of the speed of transport of choline (cf. 6.1.2)

α-MSH
Surface occupied by the melanin, % medium alone [1]: 208%
Surface occupied by the melanin, Average [1]: 40277.8 pixels
Melanin, % medium alone ([2]; +UVA): 141%
Melanin, Average ([2]; +UVA): 96.1 µg/mL
Melanin, single values ([2]; +UVA): 95.6 µg/mL and 84.7 µg/mL and 107.9 µg/mL
Melanin, % medium alone ([2]; +UVB): 128%
Melanin, Average ([2]; +UVB): 106.5 µg/mL
Melanin, single values ([2]; +UVB): 99.5 µg/mL and 115.5 µg/mL and 104.6 µg/mL
Melanin, % medium alone ([2]; WITHOUT UV): 141%
Melanin, Average ([2]; WITHOUT UV): 80.7 µg/mL
Melanin, single values ([2]; WITHOUT UV): 70.3 µg/mL and 86.9 µg/mL and 85 µg/mL

CN(C)CCOC(c1ccccc1)c1ccccc1 [DPA, Diphenhydramin]
Capture of [^3H]choline ([3]; 30 s): 74 pmol/mg proteins
Capture of [^3H]choline ([3]; 60 s): 105 pmol/mg proteins
Capture of [^3H]choline ([3]; 90 s): 132 pmol/mg proteins
Capture of [^3H]choline ([3]; 120 s): 142 pmol/mg proteins
rate of transport of lipids (in words) ([3]; Diphenhydramin 1 mM alone): strongly inhibits
Capture of [^3H]choline ([4]; 30 s): 55 pmol/mg of proteins
Capture of [^3H]choline ([4]; 60 s): 79 pmol/mg of proteins
Capture of [^3H]choline ([4]; 120 s): 119 pmol/mg of proteins
rate of transport of lipids (in words) ([4]; Diphenhydramin 1 mM alone): strongly inhibits
Capture of [^3H]choline ([5]; 30 s): 92 pmol/mg proteins
Capture of [^3H]choline ([5]; 60 s): 115 pmol/mg proteins
Capture of [^3H]choline ([5]; 90 s): 143 pmol/mg proteins
Capture of [^3H]choline ([5]; 120 s): 156 pmol/mg proteins
rate of transport of lipids (in words) ([5]; Diphenhydramin 1 mM alone): moderately inhibits
